Assay results: patent publication US20230374071A1, “COMPOSITIONS FOR INDUCING URINARY VOIDING AND DEFECATION” (Dignify Therapeutics, LLC, priority 2020, published 2023)
Converted amounts (≈) assume the structure as drawn.

Experiments:
[1] = Aqueous solubility of lyophilized peptide analogs (observed dissolution in Dulbecco's phosphate buffered saline and water); assay type: physicochemical; conditions: observed dissolution in both Dulbecco's phosphate buffered saline and water; 5 mg/mL was the maximum tested
Experimental: Peptide analogs of NKA were purified to ≥95% purity. […] Compounds A, B, H, and J (SEQ ID NO: 1, 2, 8, and 10) were considered to be aqueous insoluble (<0.1 mg/mL). *Aqueous solubilities of the lyophilized peptide analogs were determined based on the observed dissolution in both Dulbecco's phosphate buffered saline and water. gc=Gly-(R-gamma-lactam)-Leu or (S)-2-((R)-3-amino)-2-oxopyrrolidin-1-yl)-4-methylpantanoyl.

[2] = biological target: T1, human NK2 receptor (hNK2R) (Homo sapiens, UniProt P21452); assay: Intracellular calcium mobilization (Fluo-4 AM, FLIPR) in CHO cells expressing recombinant hNK2R; assay type: cell-based; conditions: for EC50: calcium mobilization, CHO-hNK2 cells, agonist potency, read-out: hNK2R pEC50 (converted)
T1 construct: expressed in transfected cells; host or cells: CHO (CHO-hNK2)
T1 sequence (P21452 1-398): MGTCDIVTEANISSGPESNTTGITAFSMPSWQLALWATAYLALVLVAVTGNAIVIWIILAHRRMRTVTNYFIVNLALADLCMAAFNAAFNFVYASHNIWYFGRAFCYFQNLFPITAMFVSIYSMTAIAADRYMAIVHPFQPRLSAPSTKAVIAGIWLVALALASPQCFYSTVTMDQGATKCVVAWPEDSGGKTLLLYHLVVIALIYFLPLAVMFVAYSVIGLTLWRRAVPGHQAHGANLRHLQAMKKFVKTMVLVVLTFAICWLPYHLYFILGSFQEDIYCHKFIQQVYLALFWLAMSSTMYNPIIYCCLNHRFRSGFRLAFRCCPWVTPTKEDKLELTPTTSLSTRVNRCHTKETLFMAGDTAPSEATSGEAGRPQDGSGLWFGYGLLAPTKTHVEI
Experimental: (§1) Intracellular Calcium Mobilization: The agonist efficacy of compounds A-J at recombinant hNK2R or hNK1Rs expressed in CHO cells was assessed by measuring intracellular calcium mobilization using the calcium-sensitive dye Fluo-4 AM (MOLECULAR PROBES, EUGENE, OR, USA) and a Fluorometric Imaging Plate Reader (FLIPR, MOLECULAR DEVICES, CA, USA). CHO-hNK1 and CHO-hNK2 cells were seeded into black walled clear-bottom 384-well plates) at a density of 10,000 and 15,000 cells per well in 50 μL culture media, respectively, and grown overnight at 37° C. in a humidified CO2-incubator. Cells were washed in washing buffer using a Microplate Washer BIOTEK 384 instrument, leaving 20 μL of buffer per well after the final aspiration. Cells were then incubated at 37° C. with the cytoplasmic Ca^2+ indicator Fluo-4 AM at 2 μM in assay buffer containing 2.5 mM probenecid and 0.02% Pluronic F-127 for 45-60 min (cell loading). Cells were then washed 3 times in washing buffer using a Microplate Washer BIOTEK 384 instrument, leaving 30 μL of buffer in each well after the last wash. Loaded cell plates were transferred to the FLIPR Tetra instrument and calcium responses monitored as described below. A dual read-out FLIPR protocol was used, allowing for characterization of both agonist and antagonist profiles. For quality control, in each compound plate the signal was monitored by evaluating the responses to the reference standards (NKA and Substance P).
(§2) Twelve concentrations of each of the compounds A-J were evaluated for their ability to increase intracellular calcium levels with respect to the agonist reference standard (NKA or Substance P), and the pEC50 value was calculated. […] Concentration response curves of compounds were run in duplicate on two different occasions from the same stock solutions. Test solutions were prepared from 10 mM stock solutions in DMSO and 1 μL of each solution was stamped into V-bottom assay plates containing 49 μL assay buffer. The final concentration of DMSO was 0.5% in each well.
(§3) The results of the intracellular calcium mobilization by in vitro activation of recombinant hNK2Rs or hNK1Rs expressed in CHO cells as described above for the 10 peptide analogs A-J, is shown in Table 3 below. In addition, FIGS. 3A-3C are exemplary graphs showing stimulation of [Ca^2+] response in CHO cells expressing human NK2 or NK1 receptors by Compound A, Compound B, and Compound G, respectively. In FIGS. 3A-3C, data are expressed as % of the maximal response to substance P for NK1 receptors, or NKA for NK2 receptors. Each data point is the mean±SD from duplicate determinations.

[3] = biological target: T2, human NK1 receptor (hNK1R) (Homo sapiens, UniProt P25103); assay: Intracellular calcium mobilization (Fluo-4 AM, FLIPR) in CHO cells expressing recombinant hNK1R; assay type: cell-based; conditions: for Emax: CHO, calcium response, CHO cells, full or partial agonists, read-out: maximal response at hNK1R compared to Substance P; for EC50: calcium mobilization, CHO-hNK1 cells, agonist potency, read-out: hNK1R pEC50 (converted)
T2 construct: expressed in transfected cells; host or cells: CHO (CHO-hNK1)
T2 sequence (P25103 whole entry): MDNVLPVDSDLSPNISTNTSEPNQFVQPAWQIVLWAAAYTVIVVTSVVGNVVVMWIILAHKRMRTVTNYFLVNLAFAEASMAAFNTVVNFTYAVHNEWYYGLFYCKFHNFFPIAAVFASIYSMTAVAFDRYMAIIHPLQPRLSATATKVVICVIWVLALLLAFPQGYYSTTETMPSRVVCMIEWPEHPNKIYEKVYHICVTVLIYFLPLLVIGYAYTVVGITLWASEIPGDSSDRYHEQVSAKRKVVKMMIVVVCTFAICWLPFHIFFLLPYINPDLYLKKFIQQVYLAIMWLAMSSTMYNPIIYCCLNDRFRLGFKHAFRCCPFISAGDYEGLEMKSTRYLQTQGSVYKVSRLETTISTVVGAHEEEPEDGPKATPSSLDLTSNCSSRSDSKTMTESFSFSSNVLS
Experimental: as §1, §2, §3

SMILES | Aqueous solubility [1] [µg/mL] | solubility [1] [µg/mL] | EC50 [2] [nM] | selectivity for activation of hNK2Rs vs hNK1Rs ([2]; from ratios of EC50s) [fold] | Emax [3] [%] | EC50 [3] [nM]
CSCC[C@H](NC(=O)[C@H](CC(C)C)N1CC[C@@H](NC(=O)[C@@H](NC(=O)[C@H](Cc2ccccc2)NC(=O)[C@H](CO)NC(=O)[C@@H](N)CC(=O)O)C(C)C)C1=O)C(N)=O [Compound A, Asp-Ser-Phe-Val-gc-Met-NH2] | <100 | < 100 | 0.676 | > 700 | ≥ 85 | 490
CCCC[C@H](NC(=O)[C@H](CC(C)C)N1CC[C@@H](NC(=O)[C@@H](NC(=O)[C@H](Cc2ccccc2)NC(=O)[C@H](CO)NC(=O)[C@@H](N)CC(=O)O)C(C)C)C1=O)C(N)=O [Compound B, Asp-Ser-Phe-Val-gc-Nle-NH2] | <100 | < 100 | 8.51 | – | ≥ 73 | 1780
CSCC[C@H](NC(=O)[C@H](CC(C)C)N1CC[C@@H](NC(=O)[C@@H](NC(=O)[C@H](Cc2ccccc2)NC(=O)[C@H](CCCCN)NC(=O)[C@@H](N)CC(=O)O)C(C)C)C1=O)C(N)=O [Compound C, Asp-Lys-Phe-Val-gc-Met-NH2] | – | 5000 (≈ 5.99 mM) | 0.427 | – | – | 53.7
CCCC[C@H](NC(=O)[C@H](CC(C)C)N1CC[C@@H](NC(=O)[C@@H](NC(=O)[C@H](Cc2ccccc2)NC(=O)[C@H](CCCCN)NC(=O)[C@@H](N)CC(=O)O)C(C)C)C1=O)C(N)=O [Compound D, Asp-Lys-Phe-Val-gc-Nle-NH2] | – | 5000 (≈ 6.13 mM) | 3.63 | – | – | 479
CSCC[C@H](NC(=O)[C@H](CC(C)C)N1CC[C@@H](NC(=O)[C@@H](NC(=O)[C@H](Cc2ccccc2)NC(=O)[C@H](CCCNC(=N)N)NC(=O)[C@@H](N)CC(=O)O)C(C)C)C1=O)C(N)=O [Compound E, Asp-Arg-Phe-Val-gc-Met-NH2] | – | 5000 (≈ 5.8 mM) | 0.195 | – | – | 17.4
CCCC[C@H](NC(=O)[C@H](CC(C)C)N1CC[C@@H](NC(=O)[C@@H](NC(=O)[C@H](Cc2ccccc2)NC(=O)[C@H](CCCNC(=N)N)NC(=O)[C@@H](N)CC(=O)O)C(C)C)C1=O)C(N)=O [Compound F, Asp-Arg-Phe-Val-gc-Nle-NH2] | – | 5000 (≈ 5.92 mM) | 2.51 | – | – | 234
CCCC[C@H](NC(=O)[C@H](CC(C)C)N1CC[C@@H](NC(=O)[C@@H](NC(=O)[C@H](Cc2ccccc2)NC(=O)[C@H](CO)NC(=O)[C@H](CC(=O)O)NC(=O)[C@@H](N)CCCCN)C(C)C)C1=O)C(N)=O [Compound G, Lys-Asp-Ser-Phe-Val-gc-Nle-NH2] | – | 5000 (≈ 5.54 mM) | 7.76 | – | ≥ 73 | 1620
